Measurements reported in patent US9150505B2, “Prophylactic or therapeutic agent for diabetes or obesity” (AJINOMOTO CO., INC., priority 2010, dated 2015).

Legend:
normal mice (C57BL/6J) = test: Effects on gastric emptying using mouse (phenol red method); assay type: in vivo; conditions: 2.4 nmol/kg subcutaneously, 24 h fasted mice, phenol red 15 min after drug, stomach resected 20 min later; vehicle 82.4 ± 7.0%
Method: A dosing vehicle (distilled water) or 3 mg/kg of the compound in Example 6 (Compound 1) was orally administered in a forced manner using a mouse sonde to normal mice (C57BL/6J, 7-week-old) after 24 hours of fasting. As positive controls, a group subcutaneously injected with Exendin-4 (Sigma) (2.4 nmol/kg) that was known to have an effect of suppressing gastric emptying was also prepared. 10 ml/kg of dosing vehicle was also orally administered to the mice of the Exendin-4 group. Fifteen minutes after drug administration, phenol red solution (0.5 mg/ml phenol red+1.5% methylcellulose+distilled water) was orally administered in a forced manner at a volume of 5 ml/kg. After another 20 minutes, the stomach was resected from each mouse and phenol red remaining in the stomach was extracted in 0.1N NaOH solution. Absorbance of the extracted solution was determined at 560 nm to quantitate the amount of remaining phenol red (S). While the amount of phenol red (C) extracted from the stomach resected immediately after the administration of phenol red was assumed to be 100%, the amount of remaining phenol red […] with respect to C was calculated, as a gastric emptying volume (%), based on the following expression. Gastric emptying volume(%)=(1−(S/C))×100

NCI-H716 cells [1] = test: Promotion of GLP-1 secretion in NCI-H716 cells; assay type: cell-based, human; conditions: 30 minutes at 37° C., buffer assumed to be 1.0
Method: Human appendix-derived cell line NCI-H716 (ATCC No CCL-251) was cultured in a 10% FBS-containing DMEM/HamF-12 medium at 37° C. in the presence of 5% CO2. NCI-H716 cells were seeded in a poly-D-lysine-coated 96-well plate at 100,000 cells/well and cultured for two days. Prior to sample addition, wells were washed with Hepes buffer (20 mM Hepes, 146 mM NaCl, 5 mM KCl, 1.5 mM CaCl2, 1 mM MgSO4, 5.5 mM D-glucose, 0.2% BSA, pH 7.4). Fifty μl of a sample solution dissolved in the same buffer was added and incubated at 37° C. for 30 minutes. The above-described compounds in Example 6 (Compound 1) (10 mM), Example 48 (Compound 2) (5 mM) and Example 14 (Compound 3) (2 mM) were used as the samples. In addition, a Hepes buffer was used as a control. After collecting the supernatant, the cells were precipitated by centrifugation (5,000×g, 1 min.) to collect the supernatant thereof. GLP-1 level in the supernatant was determined as described below according to a quantitative method for GLP-1 that uses GLP-1 receptor gene expression cells.
According to a routine method (Lopez de Maturana R, Willshaw A, Kuntzsch A, Rudolph R, Donnelly D. J Biol Chem. 2003 Mar. 21; 278 (12):10195-200), human GLP-1 receptor gene (Nucleotide sequence 1) was integrated into pcDNA3.1 to prepare human GLP-1 receptor gene expression plasmid hGLP-1R/pcDNA3.1. Moreover, chimeric gene (Nucleotide sequence 2) of human Gα15 gene and human gustducin gene was integrated into pcDNA3.1 to prepare G protein expression plasmid Gα15-gust/pcDNA3.1. […] After 24 hours of cultivation in a CO2 incubator, changes in the fluorescence intensity were determined starting immediately after sample addition according to the Ca^2+ fluorescence indicator FLIPR Calcium 4 Assay Kit protocol (Molecular Devices) using FlexStation (Molecular Devices). Concentration dependency of human GLP-1 (7-36 Amide; Peptide Institute) with respect to the changes in the fluorescence intensity was determined and used as a standard curve for quantitating the sample. […]

NCI-H716 cells [2] = test: Promotion of CCK secretion in NCI-H716 cells; assay type: cell-based, human
Method: Human appendix-derived cell line NCI-H716 (ATCC No CCL-251) was cultured in a 10% FBS-containing DMEM/HamF-12 medium at 37° C. in the presence of 5% CO2. NCI-H716 cells were seeded in a poly-D-lysine-coated 24-well plate at 600,000 cells/well and cultured for two days. Prior to sample addition, wells were washed with Hepes buffer (20 mM Hepes, 146 mM NaCl, 5 mM KCl, 1.5 mM CaCl2, 1 mM MgSO4, 5.5 mM D-glucose, 0.02% BSA, pH 7.4). 300 μl of a sample solution dissolved in the same buffer was added and incubated at 37° C. for 30 minutes. Compound 1 in Example 6 (2 mM) and Compound 2 in Example 48 (1 mM) were used as the samples. In addition, a Hepes buffer was used as a control. After collecting the supernatant, the cells were precipitated by centrifugation (5,000×g, 1 min.) to collect the supernatant thereof, which was lyophilized in Speed Vac Concentrator (SAVANT) and dissolved by addition of 60 μl of water. CCK level in the solution was determined using Enzyme immuno assay kit (EK-069-04; PHENOIX PHARMACEUTICALS).

## Exendin-4: Positive control (Sigma), known to have an effect of suppressing gastric emptying
Normal mice (C57BL/6J)
  Gastric emptying volume: 51.2 ± 4.2% (*)

## Cc1c(Cl)cc(S(=O)(=O)O)cc1NC(=O)NC[C@H](N)C(=O)O [Example 14, (2S)-2-amino-3-{[(3-chloro-2-methyl-5-sulfophenyl)carbamoyl]amino}propanoic acid]
NCI-H716 cells [1]; 2 mM
  Relative secretion volumes (GLP-1): 3.54

## Cc1c(Cl)cc(NC(=S)NC[C@H](N)C(=O)O)cc1S(=O)(=O)O [Example 48, (2S)-2-amino-3-{[(3-chloro-4-methyl-5-sulfophenyl)carbamothioyl]amino}propanoic acid]
NCI-H716 cells [2]; 1 mM, 30 minutes at 37° C., buffer assumed to be 1.0
  Relative secretion volumes (CCK): 2.22
NCI-H716 cells [2]; result in words
  effect of promoting CCK secretion: confirmed to have an effect of promoting CCK secretion
NCI-H716 cells [1]; 5 mM
  Relative secretion volumes (GLP-1): 15.42
